Patent US8497294B2, “Compositions comprising (S)-2-amino-1-(4-chlorophenyl)-1-[4-(1H-pyrazol-4-yl)-phenyl]-ethanol as modulator of protein kinases” (Astex Therapeutics Limited, priority 2007, dated 2013)
pIC50: −log10 of the molar value. Values belong to the compound of their own block, whether it stands above or below them.

How the values were obtained:
[1] = biological target: PKB (Homo sapiens, UniProt P31751); assay: Activity against the kinase PKB (method not given); conditions: compound and its acid addition salts
[2] = biological target: T1, protein kinase B (PKB), fusion protein PKB-PIF (Homo sapiens, UniProt P31751); assay: PKB kinase inhibitory activity, in vitro radiometric assay; type: biochemical; conditions: (radiometric) binding assay, relative to the other enantiomer
T1 construct: made in house
Source text: The inhibition of protein kinase B (PKB) activity by compounds can be determined essentially as described by Andjelkovic et al. (Mol. Cell. Biol. 19, 5061-5072 (1999)) but using a fusion protein described as PKB-PIF and described in full by Yang et al (Nature Structural Biology 9, 940-944 (2002)). The protein is purified and activated with PDK1 as described by Yang et al. The peptide AKTide-2T (H-A-R—K—R-E-R-T-Y—S—F-G-H—H-A-OH) obtained from Calbiochem (#123900) is used as a substrate. A final concentration of 0.6 nM enzyme is used in a buffer that includes 20 mM MOPS pH 7.2, 30 μM ATP/γ^33P-ATP and 25 μM substrate. Compounds are added in DMSO solution to a final DMSO concentration of 2.5%. The reaction is allowed to proceed for 20 minutes before addition of excess orthophosphoric acid to quench activity. The reaction mixture is transferred to a phosphocellulose filter plate where the peptide binds and the unused ATP is washed away. After washing, scintillant is added and the incorporated activity measured by scintillation counting.

[3] = test system: phosphorylation of GSK3β on serine 9 in U87MG cells; assay: Cell based phospho-Ser9 GSK3β ELISA (mechanistic cellular assay); conditions: for activity in mechanistic cellular ELISA assay: result in words
Protocol: The effect on inhibiting PKB in U87MG cells is determined by the ability of compounds to inhibit phosphorylation of the direct downstream substrate GSK3β on serine 9. Cells are plated in 96 well plates and allowed to recover overnight prior to addition of the inhibitor compound for 1 hour. After 1 hour, cell are fixed and blocked with 3% paraformaldehyde, 0.25% gluteraldehyde, 0.25% Triton X100 and 5% Marvel in TBS-T. Following this cells are incubated with primary antibody directed to the phosphorylated form of GSK3β (Cell Signaling) overnight at 4° C. After washing, cells are incubated with secondary antibody using the DELFIA reagents (Eu—N1 anti-rabbit IgG antibody) for 1 h, and following enhancement plates are read on a time-resolved fluorescence reader at excitation 340 nm and emission 640 nm. All cells are obtained from ECACC (European Collection of Cell Cultures).
1. U87MG cells plated at 12,500 cells/well in 160 ul media/well in a 96 well plate
2. Incubate for 24 hours at 37° C.
3. Treat cells with the inhibitor and DMSO control
4. Incubate for 1 hour at 37° C.
5. Media flicked from the plate and blot on paper
6. 100 μl fixing solution added to each well (3% paraformaldehyde, 0.25% gluteraldehyde, 0.25% Triton X100)
7. Incubate for 30 minutes at 37° C.
8. Wash 1× with water/0.1% Tween20
9. Block with 100 μl 5% milk/TBS-T
10. Incubate for 30 minutes at 37° C.
11. 100 μl primary antibody diluted in 5% milk/TBS-T added to each well (CST #9336 Phospho-Ser9 GSK3β antibody used at 1:250)
• include a column control with no 1 ab—just 5% milk/TBS-T • can also include a column of Zymed rabbit IgG (02-6102-5 mg/mL) control diluted in 5% milk/TBS-T to the same concentration as the phospho-Ser9 GSK3β if required 12. Incubate overnight at 4° C. 13. Wash 3× with water/0.1% Tween20 14. 100 μl secondary antibody diluted in Delfia Assay Buffer added to each well (Delfia Eu—N1 anti-rabbit IgG antibody used at 0.30 μg/ml final conc) 15. Incubate for 1 hour at 37° C. 16. Wash 3× with water/0.1% Tween20 17. 100 μl Delfia Enhancement Solution added to each well 18. Shake on plate shaker for 15 minutes 19. Read on Delfia programme (excitation 340 nm−emission […])=Europium counts 20. Wash 1× with water/0.1% Tween 20 21. 200 μl BCA solution added per well (BCA with 1:50 Copper II Sulfate) 22. Incubate for 30 minutes at 37° C. 23. Read at absorbance 562 nm=protein concentration

[4] = test system: ROCK; conditions: cited from earlier work
[5] = biological target: T2, PKA catalytic domain (Homo sapiens, UniProt P17612); assay: PKA kinase inhibitory activity, radiometric assay; type: biochemical
T2 construct: using the PKA catalytic domain from Upstate Biotechnology (#14-440); purchased Upstate Biotechnology 14-440
Protocol: A final concentration of 1 nM enzyme is used in a buffer that includes 20 mM MOPS pH 7.2, 40 μM ATP/γ^33P-ATP and […] substrate. Compounds are added in dimethylsulphoxide (DMSO) solution to a final DMSO concentration of 2.5%. The reaction is allowed to proceed for 20 minutes before addition of excess orthophosphoric acid to quench activity. Unincorporated γ^33P-ATP is then separated from phosphorylated proteins on a Millipore MAPH filter plate. The plates are washed, scintillant is added and the plates are then subjected to counting on a Packard Topcount.

[6] = biological target: T3, CYP450 2C9 (Homo sapiens, UniProt P11712); assay: Potency against cytochrome P450 2C9 (Vivid screening kit); type: in vitro ADME; conditions: tested at a concentration of 10 μM
T3 construct: purchased Invitrogen (Paisley, UK), Pan Vera Vivid screening kits; host or cells: baculosomes
Protocol: (§1) The potency of the compound of Example 1 against cytochrome P450 (CYP450) enzymes 1A2, 2C9, 2C19, 3A4 and 2D6 was determined using the Pan Vera Vivid C450 screening kits available from Invitrogen (Paisley, UK). The CYP450s were supplied in the form of baculosomes containing the CYP450 and NADPH reductase and the substrates used were the fluorescent Vivid substrates. The final reaction mixtures were as follows:
50 mM potassium phosphate, pH 8, 1% acetonitrile, 2 μM Green vivid substrate, 100 μM NADP^+, 8 nM CYP450 2C9, 2.66 mM glucose-6-phosphate, 0.32 U/ml glucose-6-phosphate dehydrogenase.
(§2) Fluorescence was monitored for 20 minutes at 30 second intervals on a Fluoroskan fluorescence plate reader. The excitation and emission wavelengths were 390 nm and 460 nm for 1A2, 2C19 and 3A4, 390 nm and 485 nm for 2D6 and 485 nm and 530 nm for 2C9. Initial rates were determined from progress curves.
(§3) The test compound was made up in acetonitrile and tested against the CYP450s at a concentration of 10 μM.

[7] = biological target: T4, CYP450 2C19 (Homo sapiens, UniProt P33261); assay: Potency against cytochrome P450 2C19 (Vivid screening kit); type: in vitro ADME; conditions: tested at a concentration of 10 μM
T4 construct: purchased Invitrogen (Paisley, UK), Pan Vera Vivid screening kits; host or cells: baculosomes
Protocol: as §1
50 mM potassium phosphate, pH 8, 1% acetonitrile, 8 μM Blue vivid substrate, 100 μM NADP^+, 4 nM CYP450 2C19, 2.66 mM glucose-6-phosphate, 0.32 U/ml glucose-6-phosphate dehydrogenase.
as §2, §3

[8] = biological target: T5, CYP450 1A2 (Homo sapiens, UniProt P05177); assay: Potency against cytochrome P450 1A2 (Vivid screening kit); type: in vitro ADME; conditions: tested at a concentration of 10 μM
T5 construct: purchased Invitrogen (Paisley, UK), Pan Vera Vivid screening kits; host or cells: baculosomes
T5 sequence (P05177 1-516): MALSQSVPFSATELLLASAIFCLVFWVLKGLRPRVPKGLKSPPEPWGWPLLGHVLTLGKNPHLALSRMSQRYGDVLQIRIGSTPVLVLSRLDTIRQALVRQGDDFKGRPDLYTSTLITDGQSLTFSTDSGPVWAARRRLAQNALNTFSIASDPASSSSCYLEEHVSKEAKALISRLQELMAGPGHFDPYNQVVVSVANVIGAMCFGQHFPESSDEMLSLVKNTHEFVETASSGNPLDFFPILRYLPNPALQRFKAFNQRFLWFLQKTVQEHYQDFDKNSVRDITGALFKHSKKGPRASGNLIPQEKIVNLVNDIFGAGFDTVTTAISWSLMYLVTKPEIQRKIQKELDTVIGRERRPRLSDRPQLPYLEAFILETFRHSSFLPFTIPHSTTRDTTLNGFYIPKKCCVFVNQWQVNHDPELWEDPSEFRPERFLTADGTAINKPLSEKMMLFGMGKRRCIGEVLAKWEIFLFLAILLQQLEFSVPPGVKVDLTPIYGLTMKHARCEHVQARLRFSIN
Protocol: as §1
100 mM potassium phosphate, pH 8, 1% acetonitrile, 2 μM 1A2 Blue vivid substrate, 100 μM NADP^+, 4 nM CYP450 1A2, 2.66 mM glucose-6-phosphate, 0.32 U/ml glucose-6-phosphate dehydrogenase.
as §2, §3

[9] = biological target: hERG K+ ion channel (Homo sapiens, UniProt Q12809); assay: hERG activity
[10] = biological target: T6, CYP450 2D6 (Homo sapiens, UniProt P10635); assay: Potency against cytochrome P450 2D6 (Vivid screening kit); type: in vitro ADME; conditions: tested at a concentration of 10 μM
T6 construct: purchased Invitrogen (Paisley, UK), Pan Vera Vivid screening kits; host or cells: baculosomes
Protocol: as §1
100 mM potassium phosphate, pH 8, 1% acetonitrile, 5 μM 2D6 Blue vivid substrate, 100 μM NADP^+, 16 nM CYP450 2D6, 2.66 mM glucose-6-phosphate, 0.32 U/ml glucose-6-phosphate dehydrogenase.
as §2, §3

[11] = biological target: T7, P70S6 kinase (T412E) (Homo sapiens, UniProt P23443, T412E); assay: p70S6K radiometric assay; type: biochemical; conditions: approximately 15 μM ATP
T7 construct: purchased Upstate 14-486
Protocol: P70S6 enzyme is bought from Upstate and used at 2 nM in the assay.
The substrate S6 cocktail ([…]) is used at […] (Km has not been determined). In the phosphoryl transfer reaction, the ^33P-γ phosphate from ATP is transferred to the serine residue. The reaction mixture is transferred to a phosphocellulose filter plate where the peptide binds and the unused ATP is washed away. After washing, scintillant is added and the incorporated activity measured by scintillation counting.
S6 kinase substrate cocktail from Upstate (#20-122)
Assay Buffer 10 mM MOPS pH 7.0
• 0.1 mg/ml BSA • 0.001% Brij-35 • 0.5% glycerol • 0.2 mM EDTA • 10 mM MgCl2 • 0.01% β-mercaptoethanol • Made as a 10× stock, stored at […] in 2 ml aliquots • 15 μM ATP
Compounds—prepare a dilution curve in DMSO in a polypropylene 96 well plate to 40× final assay concentration (final DMSO 2.5%).
• 5 μl compound • 10 μl substrate mix • 10 μl enzyme mix
Final ATP concentration is approximately 15 μM. KM for ATP calculated to 47 uM radiometrically. Controls are “no compound” (DMSO only) and “no enzyme” (use 10 μl of the enzyme mix prior to adding enzyme). Cover with a plate seal (TopSeal A—Packard) or plastic lid from filter plate (moderate radiation barrier). Mix by gentle shaking. Incubate at room temperature for 50 minutes. Stop the reaction by adding 20 μl of 2% orthophosphoric acid. […]

[12] = biological target: ROCK-II (h) (Homo sapiens, UniProt O75116); assay: ROCK-II (h) assay; type: biochemical; conditions: below the limit of the assay
Protocol: In a final reaction volume of 25 μl ROCK-II (h) (5-10 mU) is incubated with 50 mM Tris pH 7.5, 0.1 mM EGTA, 30 μM […], 10 mM MgAcetate and [γ-^33P-ATP] (specific activity approx. 500 cpm/pmol, concentration as required). The reaction is initiated by the addition of the MgATP mix. After incubation for 40 minutes at room temperature, the reaction is stopped by the addition of 5 μl of a 3% phosphoric acid solution. 10 μl of the reaction is then spotted onto a P30 filtermat and washed three times for 5 minutes in 75 mM phosphoric acid and once in methanol prior to drying and scintillation counting.

T1 sequence (P31751 with tags, fused parts or gaps limits assumed): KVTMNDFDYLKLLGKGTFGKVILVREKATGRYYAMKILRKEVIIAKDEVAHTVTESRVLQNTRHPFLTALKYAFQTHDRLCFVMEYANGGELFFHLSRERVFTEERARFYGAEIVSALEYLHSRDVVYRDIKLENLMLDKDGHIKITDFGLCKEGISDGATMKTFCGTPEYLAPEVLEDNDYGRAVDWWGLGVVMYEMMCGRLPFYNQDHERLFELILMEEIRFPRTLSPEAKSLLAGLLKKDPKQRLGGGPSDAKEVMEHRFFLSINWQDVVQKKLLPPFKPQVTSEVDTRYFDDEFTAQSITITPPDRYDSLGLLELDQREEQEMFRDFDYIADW
T7 sequence (P23443 1-421 T412E limits assumed): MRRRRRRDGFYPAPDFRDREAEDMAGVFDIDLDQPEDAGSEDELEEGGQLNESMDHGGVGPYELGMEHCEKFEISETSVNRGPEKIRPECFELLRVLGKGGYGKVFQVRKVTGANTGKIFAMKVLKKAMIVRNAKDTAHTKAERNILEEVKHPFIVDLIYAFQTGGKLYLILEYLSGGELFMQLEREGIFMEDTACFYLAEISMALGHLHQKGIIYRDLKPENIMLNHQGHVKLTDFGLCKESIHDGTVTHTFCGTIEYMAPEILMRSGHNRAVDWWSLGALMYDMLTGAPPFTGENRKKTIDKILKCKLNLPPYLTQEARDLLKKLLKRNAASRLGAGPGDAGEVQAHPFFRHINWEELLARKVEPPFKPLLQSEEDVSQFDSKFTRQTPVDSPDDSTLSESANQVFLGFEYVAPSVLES
Chain of ROCK-II (h) (O75116 whole entry): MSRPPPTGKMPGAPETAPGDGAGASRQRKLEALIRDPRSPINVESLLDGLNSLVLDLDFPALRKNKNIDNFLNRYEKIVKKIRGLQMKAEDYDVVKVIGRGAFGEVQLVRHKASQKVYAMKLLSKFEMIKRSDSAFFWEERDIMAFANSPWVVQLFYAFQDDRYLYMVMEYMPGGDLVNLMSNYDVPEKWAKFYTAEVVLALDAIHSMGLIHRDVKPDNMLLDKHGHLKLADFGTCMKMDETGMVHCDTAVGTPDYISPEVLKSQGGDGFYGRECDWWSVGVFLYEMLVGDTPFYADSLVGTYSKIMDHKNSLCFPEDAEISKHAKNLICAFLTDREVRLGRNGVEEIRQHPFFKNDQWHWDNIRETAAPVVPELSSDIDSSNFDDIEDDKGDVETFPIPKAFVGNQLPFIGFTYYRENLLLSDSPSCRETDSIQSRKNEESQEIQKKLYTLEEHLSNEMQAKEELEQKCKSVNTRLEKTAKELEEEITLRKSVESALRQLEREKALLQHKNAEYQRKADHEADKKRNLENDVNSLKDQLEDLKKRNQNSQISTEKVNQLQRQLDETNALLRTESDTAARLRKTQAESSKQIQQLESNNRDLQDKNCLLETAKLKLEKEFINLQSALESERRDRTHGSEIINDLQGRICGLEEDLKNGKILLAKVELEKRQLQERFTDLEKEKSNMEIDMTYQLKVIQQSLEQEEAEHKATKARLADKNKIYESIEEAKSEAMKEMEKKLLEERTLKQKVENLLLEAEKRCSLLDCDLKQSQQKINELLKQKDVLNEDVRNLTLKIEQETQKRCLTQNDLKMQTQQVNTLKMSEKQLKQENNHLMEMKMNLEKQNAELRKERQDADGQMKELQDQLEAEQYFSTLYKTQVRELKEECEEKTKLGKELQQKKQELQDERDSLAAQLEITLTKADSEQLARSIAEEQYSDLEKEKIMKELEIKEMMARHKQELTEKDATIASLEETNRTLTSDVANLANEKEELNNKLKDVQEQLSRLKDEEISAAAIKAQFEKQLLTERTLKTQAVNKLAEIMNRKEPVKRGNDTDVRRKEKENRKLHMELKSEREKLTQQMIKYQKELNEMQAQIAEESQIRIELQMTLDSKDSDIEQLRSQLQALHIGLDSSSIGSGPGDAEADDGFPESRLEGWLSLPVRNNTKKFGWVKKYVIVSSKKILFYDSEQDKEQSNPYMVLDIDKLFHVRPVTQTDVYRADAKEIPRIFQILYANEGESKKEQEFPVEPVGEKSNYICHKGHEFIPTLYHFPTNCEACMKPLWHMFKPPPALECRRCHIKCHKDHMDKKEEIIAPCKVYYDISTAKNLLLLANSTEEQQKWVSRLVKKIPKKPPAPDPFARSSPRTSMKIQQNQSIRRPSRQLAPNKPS
Chain of hERG K+ ion channel (Q12809 whole entry): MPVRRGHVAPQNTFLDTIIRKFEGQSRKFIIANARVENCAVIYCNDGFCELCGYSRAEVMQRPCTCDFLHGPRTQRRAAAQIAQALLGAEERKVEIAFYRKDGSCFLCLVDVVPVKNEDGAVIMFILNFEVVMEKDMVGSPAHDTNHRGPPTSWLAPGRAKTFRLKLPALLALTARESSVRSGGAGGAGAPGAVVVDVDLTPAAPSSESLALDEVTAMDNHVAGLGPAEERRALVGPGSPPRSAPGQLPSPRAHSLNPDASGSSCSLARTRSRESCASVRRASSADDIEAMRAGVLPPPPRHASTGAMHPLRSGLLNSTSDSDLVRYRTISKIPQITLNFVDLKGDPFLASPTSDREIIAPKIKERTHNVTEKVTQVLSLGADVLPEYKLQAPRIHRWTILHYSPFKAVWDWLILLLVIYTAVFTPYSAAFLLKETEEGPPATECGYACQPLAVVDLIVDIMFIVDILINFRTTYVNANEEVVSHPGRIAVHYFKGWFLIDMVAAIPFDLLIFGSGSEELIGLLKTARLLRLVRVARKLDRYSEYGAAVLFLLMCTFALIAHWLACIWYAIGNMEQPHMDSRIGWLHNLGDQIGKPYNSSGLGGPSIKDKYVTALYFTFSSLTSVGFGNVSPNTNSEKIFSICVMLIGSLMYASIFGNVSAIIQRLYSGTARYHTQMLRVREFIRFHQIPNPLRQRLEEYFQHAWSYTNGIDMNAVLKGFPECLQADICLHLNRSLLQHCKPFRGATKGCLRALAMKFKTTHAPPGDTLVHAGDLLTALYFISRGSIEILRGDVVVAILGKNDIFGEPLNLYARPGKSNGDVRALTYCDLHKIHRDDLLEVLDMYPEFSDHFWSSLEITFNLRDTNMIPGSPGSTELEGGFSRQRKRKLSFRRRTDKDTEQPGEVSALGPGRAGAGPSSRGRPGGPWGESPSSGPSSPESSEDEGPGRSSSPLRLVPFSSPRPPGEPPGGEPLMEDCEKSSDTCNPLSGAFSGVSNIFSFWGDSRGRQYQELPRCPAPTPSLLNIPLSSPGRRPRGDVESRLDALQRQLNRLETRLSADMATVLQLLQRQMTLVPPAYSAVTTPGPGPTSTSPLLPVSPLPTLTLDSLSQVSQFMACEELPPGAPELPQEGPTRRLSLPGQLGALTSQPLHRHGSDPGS
T6 sequence (P10635 whole entry): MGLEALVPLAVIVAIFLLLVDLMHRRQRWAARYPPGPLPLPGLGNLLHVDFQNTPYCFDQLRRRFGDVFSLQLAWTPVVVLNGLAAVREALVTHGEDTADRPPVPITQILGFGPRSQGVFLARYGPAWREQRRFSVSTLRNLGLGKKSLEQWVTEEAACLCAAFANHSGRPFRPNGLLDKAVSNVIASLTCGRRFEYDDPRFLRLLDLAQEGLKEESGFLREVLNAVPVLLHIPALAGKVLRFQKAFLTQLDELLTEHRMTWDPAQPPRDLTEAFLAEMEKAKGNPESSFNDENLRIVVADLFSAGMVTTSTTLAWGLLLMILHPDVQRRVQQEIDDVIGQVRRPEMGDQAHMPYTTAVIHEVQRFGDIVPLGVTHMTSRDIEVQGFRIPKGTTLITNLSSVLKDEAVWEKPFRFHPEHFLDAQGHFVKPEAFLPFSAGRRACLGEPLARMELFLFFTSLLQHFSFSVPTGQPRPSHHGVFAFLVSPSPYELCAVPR
T4 sequence (P33261 whole entry): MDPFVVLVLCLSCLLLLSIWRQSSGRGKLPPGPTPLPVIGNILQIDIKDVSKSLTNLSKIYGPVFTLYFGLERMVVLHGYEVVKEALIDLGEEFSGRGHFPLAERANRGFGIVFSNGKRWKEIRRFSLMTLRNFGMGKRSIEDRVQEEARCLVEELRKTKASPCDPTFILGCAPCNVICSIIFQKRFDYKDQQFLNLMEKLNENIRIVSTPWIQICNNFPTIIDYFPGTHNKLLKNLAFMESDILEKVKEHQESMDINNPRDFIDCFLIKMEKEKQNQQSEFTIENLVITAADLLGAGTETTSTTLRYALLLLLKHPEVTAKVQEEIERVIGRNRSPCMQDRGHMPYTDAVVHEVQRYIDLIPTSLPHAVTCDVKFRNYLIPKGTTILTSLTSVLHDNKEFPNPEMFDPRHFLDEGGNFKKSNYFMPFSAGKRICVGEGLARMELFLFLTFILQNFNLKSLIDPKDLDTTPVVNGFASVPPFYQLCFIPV
T3 sequence (P11712 whole entry): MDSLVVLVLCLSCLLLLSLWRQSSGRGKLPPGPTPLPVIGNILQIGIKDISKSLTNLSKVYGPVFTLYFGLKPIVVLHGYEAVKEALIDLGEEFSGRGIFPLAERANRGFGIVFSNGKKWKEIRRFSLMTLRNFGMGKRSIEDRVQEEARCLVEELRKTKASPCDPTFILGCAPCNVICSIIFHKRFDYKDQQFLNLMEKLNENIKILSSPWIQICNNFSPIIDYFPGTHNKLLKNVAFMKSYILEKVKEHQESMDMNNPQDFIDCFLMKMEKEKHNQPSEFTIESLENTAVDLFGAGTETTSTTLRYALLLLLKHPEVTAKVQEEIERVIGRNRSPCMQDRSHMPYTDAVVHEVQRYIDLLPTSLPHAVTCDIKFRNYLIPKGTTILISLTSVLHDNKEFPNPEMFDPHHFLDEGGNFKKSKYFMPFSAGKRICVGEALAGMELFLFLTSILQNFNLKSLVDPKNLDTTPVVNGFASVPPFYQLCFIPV

Compound: CNC[C@@H](c1ccc(Cl)cc1)c1ccc(-c2cn[nH]c2)cc1 (single isomer, unassigned) [Isomer A]
- fold more active against PKB than its antipode [2]: 10 fold

Compound: NC[C@@H](c1ccc(Cl)cc1)c1ccc(-c2cn[nH]c2)cc1 (single isomer, unassigned) [Isomer C]
- fold more active against PKB than its antipode [2]: about 10 fold
- activity in mechanistic cellular ELISA assay [3]: essentially equipotent

Compound: NC[C@H](c1ccc(Cl)cc1)c1ccc(-c2cn[nH]c2)cc1 (single isomer, unassigned) [Isomer D]
- activity in mechanistic cellular ELISA assay [3]: essentially equipotent

Compound: C[C@@H](N)[C@H]1CC[C@H](C(=O)Nc2ccncc2)CC1 [Example Y-27632]
- effective doses for the use of this compound [4]: approximately 30 uM

Second part, led by results:

- activity against the kinase PKB [1]: have activity against the kinase PKB
Compound: NCC(O)(c1ccc(Cl)cc1)c1ccc(I)cc1 (racemic) [compound of the formula (12), 2-amino-1-(4-chloro-phenyl)-1-[4-iodo-phenyl]-ethanol]

- pIC50 ([3]; Homo sapiens, U-87 MG, U87MG cells, 1 hour with inhibitor): < 4.30
- pIC50 ([5]; isolated enzyme, read-out: IC50 against PKA): 6.60
Compound: NC[C@](O)(c1ccc(Cl)cc1)c1ccc(-c2cn[nH]c2)cc1 [R-enantiomer, (R)-2-amino-1-(4-chloro-phenyl)-1-[4-(1H-pyrazol-4-yl)-phenyl]-ethanol]
- activity in mechanistic cellular ELISA assay [3]: no measurable activity

- pIC50 [6]: < 5.00
- pIC50 [7]: < 5.00
- pIC50 [8]: < 5.00
- inhibition at 0.03 µM ([5]; at a concentration of 0.03 μM): 44%
- pIC50 [10]: < 5.00
- pIC50 [11]: 7.92
- pIC50 [12]: > 8.00
Compound: NC[C@@](O)(c1ccc(Cl)cc1)c1ccc(-c2cn[nH]c2)cc1 [compound of formula (I), (S)-2-amino-1-(4-chloro-phenyl)-1-[4-(1H-pyrazol-4-yl)-phenyl]-ethanol]
- activity in mechanistic cellular ELISA assay [3]: good activity
- hERG ion channel blocking activity [9]: negligible
